These results are taken from US20060040883A1, “Methods for treating cancer using anti-Wnt2 monoclonal antibodies and siRNA” (The Regents of the University of California, priority 2004, published 2006).

One data set relates to MS1 mesothelioma cells. Put plainly: Proliferation assay (tetrazolium conversion) in MS1 cells. The data set is classed as cell-based, human. The following applies: three days. The protocol:
Alimta® (MTA) was supplied by Eli Lilly (Indianapolis, Ind.). Alimta® was diluted in sterile physiological solution at a concentration of 10 mg/ml. The stock was divided into aliquots, stored at −80° C., and diluted in culture medium before each experiment. Wnt2 antibody was stored at 4° C. and used as previously described. Cell proliferation was determined by measuring metabolic activity of tetrazolium conversion (Cell Titer 96 assay, Promega, Madison, Wis.). Briefly, 5,000 cells were plated per well in a 96-well plate and culture medium containing increasing concentrations of both drugs was added. Plates were incubated at 37° C. for 72 hours in a CO2 incubator. Then a solubilization/stop solution was added and the absorbance was recorded with a […] at a wavelength of 570 nm. Each experiment was repeated at least 3 times in triplicate.
The effects of the anti-Wnt2 monoclonal antibody on cell proliferation were assessed and compared with the effects of Alimta®. Alimta® (LY231514, MTA, pemetrexed) is a novel multifunctional antifolate antimetabolite (Hanauske Lung Cancer 45 Suppl 1:S121-4 (2004)). […] Alimta® is now considered a standard in the treatment of surgically non-amenable mesothelioma. […] Three days later the cell proliferation was assessed by measuring the metabolic activity of cellular enzyme (here the tetrazolium conversion).

The next data set deals with JNK. Put plainly: JNK activity. The class given is cell-based. The note with it: inhibition of Dvl by blocking CK-2 activity. An excerpt: Through frizzled receptor and dishevelled protein, Wnt signal activates two distinct pathways: the canonical pathway (i.e., β catenin pathway) and the JNK pathway. Dishevelled protein has three highly conserved domains, DIX, PDZ, and DEP. Among them, the DIX and PDZ domains are necessary for the canonical signaling pathway while the DEP domain is important for the activation of JNK pathway. […] Most likely, the activation of JNK after anti-Wnt antibody treatment is through Dvl.

The subject of a further data set is A549, LOX and FEMX. In words: Specificity control with blocking peptide (apoptosis by flow cytometry). The data set is classed as cell-based, human. The note with it: 300 μg/ml for 72 hrs, alone. An excerpt: Cells were harvested by trypsinization and processed for determination of cell surface annexin-V and propodium iodide (PI) contents, according to the manufacture's protocol (Annexin V FITC Apoptosis Detection Kit (Oncogene, Cambridge, Mass.); Apotarget (BioSource International)). With the use of Annexin-V-PI double staining regime, three populations of cells are distinguishable in two color flow cytometry: (a) non-apoptotic cells: annexin-V and PI negative; (b) early apoptotic cells with exposed phosphatidylserine but intact cell membranes bound to Annexin V-FITC but excluded propidium iodide; and (c) cells in necrotic or late apoptotic stages were labeled with both Annexin V-FITC and propidium iodide. Then stained cells were immediately analyzed by flow cytometry (FACScan; Decton Dickinson, Franklin Lake, N.J.). TUNEL staining of tumor tissue samples harvested from in vivo experiment was performed using ApopTag Peroxidase In Situ Oligo Ligation Apoptosis Detection Kit (Chemicon International, Temecula, Calif.) according to the manufacturer's protocol.
As a specificity control, induction of apoptosis was examined by using monoclonal Wnt2 antibody blocked by overnight pre-incubation with blocking peptide (30-fold over the antibody) in A549, LOX and FEMX. […] Same dose of blocking peptide (300 μg/ml for 72 hrs) alone had no effect on cell viability.

In data set [1] the test system is hepatoma cell lines HepG2 and Hep3B. Put plainly: Cytotoxic effects in hepatoma cell lines. The data set is classed as cell-based. The note with it: data not shown.

`Nc1nc2[nH]cc(CCc3ccc(C(=O)N[C@@H](CCC(=O)O)C(=O)O)cc3)c2c(=O)[nH]1` [Alimta®, pemetrexed]: the figures for the “decrease in cell proliferation” value with MS1 mesothelioma cells (1 μg/ml) and in the data set on MS1 mesothelioma cells (10 μg/ml) were “about 41.9%” and “about 42.9%”, respectively.

For `O=c1cc(-c2ccc(O)cc2)oc2cc(O)cc(O)c12` [Apigenin, reference compound], the JNK activity entry with JNK is recorded as “increased JNK activity”.

For the molecule “blocking peptide: peptide pre-incubated with the anti-Wnt2 antibody (30-fold over the antibody) to block it (SSQRQLCHRHPDVMR; UniProt P09544 49-63, looked up, fragment) [reference compound]”, the cell viability entry in the data set on A549, LOX and FEMX was “no effect”.

B1: anti-Wnt2 monoclonal antibody: mouse monoclonal IgG1 raised against residues 49-63 of human Wnt2; 17F7.G7 was used in the experiments described (protein)
chain: SWWYMRATGGSSRVMCDNVPGLVSSQRQLCHRHPDVMRAISQGVAEWTAECQHQFRQHRWNCNTLDRDHSLFGRVLLRSSRESAFVYAISSAGVVFAITRACSQGEVKSCSCDPKKMGSAKDSKGIFDWGGCSDNIDYGIKFARAFVDAKERKGKDARALMNLHNNRAGRKAVKRFLKQECKCHGVSGSCTLRTCWLAMADFRKTGDYLWRKYNGAIQVVMNQDGTGFTVANERFKKPTKNDLVYFENSPDYCIRDREAGSLGTAGRVCNLTSRGMDSCEVMCCGRGYDTSHVTRMTKCGCKFHWCCAVRCQDCLEALDVHTCKAPKNADWTTAT
On to B1, for which the cytotoxic effects entry in data set [1] is “cytotoxic effects”.
